Tests used:
[1] = tested on: human colorectal cancer LS180-subcutaneously transplanted model; test: Antitumor activity, LS180-subcutaneously transplanted model; format: in vivo, female SCID mice; details: oral, BID × 13, 17 days after grouping
Method: Evaluation of Antitumor Activity Against Human Colorectal Cancer LS180-Subcutaneously Transplanted Model
(§1) Human colorectal cancer LS180 cells were subcutaneously transplanted in an amount of 5×10^6 cells/head to the right abdomens of female SCID mice. After 3 days, the mice were grouped on the basis of their presumed tumor volumes and body weights. The LS180 cells were purchased from ATCC. […] The tumor volume of each individual was measured from the grouping date to 17 days thereafter (test completion date).

[2] = tested on: EZH2 Y641N mutant human diffuse large B-cell lymphoma KARPAS-422-subcutaneously transplanted model; test: Antitumor activity, KARPAS-422-subcutaneously transplanted model; format: in vivo, female SCID mice; details: oral, QD × 14, 45 days after grouping
Excerpt: Evaluation of Antitumor Activity Against EZH2 Y641N Mutant Human Diffuse Large B-Cell Lymphoma KARPAS-422-Subcutaneously Transplanted Model
EZH2 Y641N mutant human diffuse large B-cell lymphoma KARPAS-422 cells were subcutaneously transplanted in an amount of 2×10^7 cells/head to the right abdomens of female SCID mice. After 30 days, the mice were grouped on the basis of their presumed tumor volumes (major axis×minor axis×minor axis/2) and body weights. The KARPAS-422 cells were purchased from DSMZ. […] The tumor volume of each individual was measured from the grouping date to 45 days thereafter (test completion date).

[3] = tested on: human stomach cancer NCI-N87-subcutaneously transplanted model; test: Antitumor activity, NCI-N87-subcutaneously transplanted model; format: in vivo, female BALB/c-nu/nu mice; details: oral, QD × 28, 82 days after grouping
Method: Evaluation of Antitumor Activity Against Human Stomach Cancer NCI-N87-Subcutaneously Transplanted Model
as §1, with “stomach” for “colorectal”, “NCI-N87” for “LS180”, “8×10^6” for “5×10^6”, “BALB/c-nu/nu” for “SCID”, “12” for “3”, “82” for “17”

[4] = tested on: SNF5 deletion mutant human kidney-derived rhabdoid tumor G401-subcutaneously transplanted model; test: Antitumor activity, G401-subcutaneously transplanted model; format: in vivo, female BALB/c-nu/nu mice; details: oral, QD × 12, 36 days after grouping
Excerpt: Evaluation of Antitumor Activity Against SNF5 Deletion Mutant Human Kidney-Derived Rhabdoid Tumor G401-Subcutaneously Transplanted Model
as §1, with “SNF5 deletion mutant human kidney-derived rhabdoid tumor G401” for “Human colorectal cancer LS180”, “1×10^7” for “5×10^6”, “BALB/c-nu/nu” for “SCID”, “23” for “3”, “G401” for “LS180”, “36” for “17”

NCI-N87 = test: Cell growth inhibitory activity evaluation, NCI-N87; format: cell-based, human; details: NCI-N87 (Stomach cancer)
Method: (§2) Cell Growth Inhibitory Activity Evaluation
(§3) Cells were purchased from ATCC (G401 (human kidney-derived rhabdoid tumor), HepG2, LNCaP, LS180, MV4; 11, NCI-H1563, NCI-H1703, NCI-H520, NCI-H522, NCI-N87, RS4; 11, and THP-1), Deutsche Sammlung von Mikroorganismen und Zellkulturen GmbH (DSMZ) (KARPAS-422 (EZH2 Y641N mutant human diffuse large B-cell lymphoma) and KOPN8), and Health Science Research Resource Bank (OVMANA). […] Then, the luminescence intensity of each well was measured using a plate reader (EnVision, PerkinElmer, Inc.). The extent of cell growth inhibition was calculated from the luminescence intensity of a sample-supplemented group (Ts) and a DMSO-supplemented group (Cs) measured on the inoculation date and a sample-supplemented group (T) and a DMSO-supplemented group (C) measured on the effect determination date according to the following expression: Extent of cell growth inhibition (%)={1−(T−Ts)/(C−Cs)}×100
(§4) When the number of cells in the sample-supplemented group is decreased on the determination date compared with the inoculation date (T<Ts), a cytocidal effect was calculated according to the following expression: Cytocidal rate (%)=(T−Ts)/Ts×(−100)

NCI-H1703 = test: Cell growth inhibitory activity evaluation, NCI-H1703; format: cell-based; details: NCI-H1703 (Lung cancer)
Method: as §2, §3, §4

KOPN8 = test: Cell growth inhibitory activity evaluation, KOPN8; format: cell-based
Method: as §2, §3, §4

NCI-H520 = test: Cell growth inhibitory activity evaluation, NCI-H520; format: cell-based; details: Homo sapiens, NCI-H520 (Lung cancer), read-out: Extent of cell growth inhibition
Method: as §2, §3, §4

RS4;11 = test: Cell growth inhibitory activity evaluation, RS4;11; format: cell-based; details: RS4;11 (Leukemia)
Method: as §2, §3, §4

MV4;11 = test: Cell growth inhibitory activity evaluation, MV4;11; format: cell-based; details: MV4;11 (Leukemia)
Method: as §2, §3, §4

NCI-H522 = test: Cell growth inhibitory activity evaluation, NCI-H522; format: cell-based; details: NCI-H522 (Lung cancer)
Method: as §2, §3, §4

OVMANA = test: Cell growth inhibitory activity evaluation, OVMANA; format: cell-based; details: OVMANA (Ovarian cancer), read-out: Extent of cell growth inhibition
Method: as §2, §3, §4

THP-1 = test: Cell growth inhibitory activity evaluation, THP-1; format: cell-based; details: THP-1 (Leukemia)
Method: as §2, §3, §4

[5] = tested on: G401 (human kidney-derived rhabdoid tumor); test: Cell growth inhibitory activity evaluation, G401; format: cell-based
Method: as §2, §3, §4

[6] = tested on: KARPAS-422 (EZH2 Y641N mutant human diffuse large B-cell lymphoma); test: Cell growth inhibitory activity evaluation, KARPAS-422; format: cell-based; details: KARPAS-422 (Lymphoma)
Method: as §2, §3, §4

LS180 = test: Cell growth inhibitory activity evaluation, LS180; format: cell-based, human; details: LS180 (Colorectal cancer)
Method: as §2, §3, §4

LNCaP = test: Cell growth inhibitory activity evaluation, LNCaP; format: cell-based; details: LNCaP (Prostate cancer)
Method: as §2, §3, §4

HepG2 = test: Cell growth inhibitory activity evaluation, HepG2; format: cell-based; details: Homo sapiens, HepG2 (Liver cancer), read-out: Extent of cell growth inhibition
Method: as §2, §3, §4

NCI-H1563 = test: Cell growth inhibitory activity evaluation, NCI-H1563; format: cell-based; details: Homo sapiens, NCI-H1563 (Lung cancer), read-out: Extent of cell growth inhibition
Method: as §2, §3, §4

[7] = Homo sapiens, read-out: Extent of cell growth inhibition

With `Cc1cc(C)c(CNC(=O)c2cc(Cl)c3c(c2C)OC(C)([C@H]2CC[C@H](N(C)C)CC2)O3)c(=O)[nH]1` (relative stereo) [Example 34, 7-Chloro-2-[trans-4-(dimethylamino)cyclohexyl]-N-[(4,6-dimethyl-2-oxo-1,2-dihydropyridin-3-yl)methyl]-2,4-dimethyl-1,3-benzodioxole-5-carboxamide] the “Extent of tumor growth inhibition” value ([1]; LS180, 50 mg/kg) was 8%, the “Extent of tumor growth inhibition” value ([1]; LS180, 200 mg/kg) was 73% and the “Extent of tumor growth inhibition” value ([2]; KARPAS-422, 5 mg/kg) was 44%. For the same compound, the “Extent of tumor growth inhibition” value ([2]; KARPAS-422, 25 mg/kg) was 76%, the “Extent of tumor growth inhibition” value ([2]; KARPAS-422, 200 mg/kg) was greater than 100% and the “Extent of tumor regression” value ([2]; KARPAS-422, 200 mg/kg) was 52%. The “Extent of tumor growth inhibition” value ([3]; NCI-N87, 50 mg/kg) was 80%, the “Extent of tumor growth inhibition” value ([3]; NCI-N87, 200 mg/kg) was 87% and the “Extent of tumor growth inhibition” value ([4]; G401, 50 mg/kg) was greater than 100%. The “Extent of tumor regression” value ([4]; G401, 50 mg/kg) was 22%, the “Extent of tumor growth inhibition” value ([4]; G401, 200 mg/kg) was greater than 100% and the “Extent of tumor regression” value ([4]; G401, 200 mg/kg) was 17%.

In the case of `Cc1cc(C)c(CNC(=O)c2cc(Br)c3c(c2C)OC(C)([C@H]2CC[C@H](N(C)C)CC2)O3)c(=O)[nH]1` (relative stereo) [Example 14, 7-Bromo-2-[trans-4-(dimethylamino)cyclohexyl]-N-[(4,6-dimethyl-2-oxo-1,2-dihydropyridin-3-yl)methyl]-2,4-dimethyl-1,3-benzodioxole-5-carboxamide], the inhibition at 1 µM (NCI-N87; [7]) is reported as greater than 100%, the Cytocidal rate (NCI-N87; 1 uM) is reported as 15% and the inhibition at 1 µM (NCI-H1703; [7]) is reported as greater than 100%. For the same compound, the Cytocidal rate (NCI-H1703; 1 uM) was 49%, the inhibition at 1 µM (KOPN8; Homo sapiens, KOPN-8, KOPN8 (Leukemia), read-out: Extent of cell growth inhibition) was greater than 100% and the Cytocidal rate (KOPN8; KOPN8 (Leukemia), 1 uM) was 99%. The “Extent of tumor growth inhibition” value ([2]; KARPAS-422, 5 mg/kg) was 26%, the “Extent of tumor growth inhibition” value ([2]; KARPAS-422, 25 mg/kg) was 80% and the “Extent of tumor growth inhibition” value ([2]; KARPAS-422, 200 mg/kg) was greater than 100%. The “Extent of tumor regression” value ([2]; KARPAS-422, 200 mg/kg) was 50%, the “Extent of tumor growth inhibition” value ([4]; G401, 50 mg/kg) was greater than 100% and the “Extent of tumor regression” value ([4]; G401, 50 mg/kg) was 19%. For the same compound, the “Extent of tumor growth inhibition” value ([4]; G401, 200 mg/kg) was greater than 100%, the “Extent of tumor regression” value ([4]; G401, 200 mg/kg) was 29% and the inhibition at 1 µM (NCI-H520) was 80%. It also gave an inhibition at 1 µM (RS4;11; [7]) greater than 100%, a Cytocidal rate (RS4;11; 1 uM) of 94% and an inhibition at 1 µM (MV4;11; [7]) greater than 100%. The Cytocidal rate (MV4;11; 1 uM) was 88%, the inhibition at 1 µM (NCI-H522; [7]) was greater than 100% and the Cytocidal rate (NCI-H522; 1 uM) was 13%. For the same compound, the inhibition at 1 µM (OVMANA) was 95%, the inhibition at 1 µM (THP-1; [7]) was greater than 100% and the Cytocidal rate (THP-1; 1 uM) was 7%. The Cytocidal rate ([5]; 1 uM) was 100%, the inhibition at 1 µM ([5]; Homo sapiens, G-401, read-out: Extent of cell growth inhibition) was greater than 100% and the inhibition at 1 µM [6, 7] was greater than 100%. For the same compound, the Cytocidal rate ([6]; 1 uM) was 100%, the inhibition at 1 µM (LS180; [7]) was greater than 100% and the Cytocidal rate (LS180; 1 uM) was 6%. For the same compound, the inhibition at 1 µM (LNCaP; [7]) was greater than 100%, the Cytocidal rate (LNCaP; 1 uM) was 6% and the inhibition at 1 µM (HepG2) was 78%. The inhibition at 1 µM (NCI-H1563) was 56%.

— patent US10954219B2, “1,3-benzodioxole derivative” (DAIICHI SANKYO COMPANY, LIMITED, priority 2014, dated 2021)
